The values that follow come from patent publication US20240391900A1, “RIP1 KINASE INHIBITOR AND USE THEREOF” (SIRONAX (BEIJING) CO., LTD., priority 2021, published 2024).

The nature of series [1]: Rapid brain distribution assay (LC-MS/MS, brain tissue/plasma ratio). As to conditions: mouse, ip, CD1 mice, intraperitoneal, grouped compounds, brain tissue and plasma taken one hour after administration, read-out: B/P. The class given is in vivo. How it is done: The contents in plasma and tissue samples were measured by LC-MS/MS to obtain the ratio of the concentration in the brain tissue sample to that in the plasma sample, and compounds with blood-brain penetration could be quickly screened.
• 3.1. A group of compounds (usually 3-4 compounds, the molecular weight difference between each other was greater than 5), weighing 1-2 mg of each compound, were added into the same 4 mL weighing bottle. • 3.2. A mixed solvent of 10% DMSO+20% polyethylene glycol-15-hydroxystearate+70% H2O was used to prepare each group to a volume of 1.5 mL-2 mL. • 3.3. The mixture was ultrasonically vortexed until a homogeneous solution was obtained for intraperitioneal administration.
• 4.1. Three CD1 mice were prepared for each group and weighed. • 4.2. The administration volume was 10 mL/kg, and the mice were administered intraperitoneally. • 4.3. Timing was started after administration, and plasma samples and brain tissue samples were taken one hour later. • 4.4. The brain tissue sample was weighed, and then 4 fold volume of physiological saline was added. The resulting mixture was homogenized, and frozen at −20° C. until analysis.
• 5.1. The exact molecular weight of a compound was found from the compound information table. • 5.2. The corresponding parent ions and fragment ions were found, and the mass spectrometry condition and the liquid phase (chromatography) method were optimized to find the appropriate condition and method.
• 6.1. Plasma sample (5-fold dilution): 10 μL of the plasma sample was taken, and 40 μL of the blank plasma sample and 50 μL of the corresponding blank tissue sample were added. • 6.2 Tissue sample processing: 50 μL of the tissue sample (brain, kidney, liver and the like) was taken, and 50 μL of the blank plasma sample was added. • 6.3. The above tissue sample and the diluted plasma sample were taken, and 500 μL of the internal standard solution was added to precipitate the protein. The resulting mixture was vortexed for 2 minutes, stored by freezing at −20° C. for 1 hour and centrifuged at 3800 rpm for 15 minutes at 4° C. The supernatant was taken, 5-fold diluted with 50% MeOH, and then vortexed for 2 minutes, ready for measurement.
The sample was detected by using an appropriate LC-MS/MS method.
Distribution ratio of tissue/plasma=(peak area of compound in tissue/peak area of internal standard)/(peak area of compound in plasma/peak area of internal standard)

Series [2] concerns HT-29 human colon cancer cells. Put plainly: In vitro biological activity assay: inhibition of TNFα/SmacM/Z_VAD FMK-induced programmed necrosis, CellTiter-Glo viability. Format: cell-based. Particulars: HT-29 cells, necrosis induced with TNF-α 100 ng/mL, SmacM 100 nM, Z_VAD-FMK 10 μM, overnight, cell viability by chemiluminescence. As for the experimental part: In order to verify the inhibitory effect of the compounds of the present disclosure on programmed necrosis at the cellular level, a type of cells closely related to the RIP1 pathway, namely HT-29 human colon cancer cells, were selected. The used activation mode is a combination of tumor necrosis factor (TNFα), cysteine aspartate activator mimic (SmacM) and pan-caspase inhibitor Z_VAD FMK, and the cell viability was calculated by detecting chemiluminescence values, thus obtaining the biological activity of the compound inhibiting the programmed necrosis of cells.
Cell line: HT-29 (ATCC® HTB-38™)
• 2.1. The Growth Status of HT-29 Cells was Regularly Checked to Ensure their Normal Growth. • 2.2. McCOY's 5A culture medium containing 10% FBS was preheated in a 37° C. water bath for 30 minutes. When the culture medium was ready for use, the cell passage and inoculation was performed in a Class II safety cabinet with aseptic technique. • 2.3. In a T75 culture flask, when the growth density of cells reached the abundance of approximately 80%, the culture medium was aspirated and cells were washed twice with pre-warmed PBS. • 2.4. 2-3 mL of trypsin (Gibco, catalog number 25200-056) was added and the T75 culture flask was transferred to a 37° C. incubator. • 2.5. After 3-5 minutes, the side of the culture flask was tapped and examined under a microscope for detachment of the cells to the flask. If necessary, the cells were placed back into the incubator to wait for another 5-10 minutes until 85% of the cells were detached from each other. • 2.6. 6-9 mL of complete cell culture medium was quickly added to terminate the trypsin reaction, and then the cells were transferred to a sterile 15 mL centrifuge tube. The cells were pelleted by centrifugation at 300 g for 5-7 minutes in a centrifuge, and then the supernatant was decanted. • 2.7. The cells were resuspended in 10 mL of fresh cell culture medium and the cells were counted by using a hemocytometer. • 2.8. 3,000 cells contained in 100 μL were inoculated into each well of a sterile 96-well cell culture plate (Corning 3903) and cultured overnight at 37° C. under 5% CO2.
• 3.1. All batches of compounds were dissolved in dimethyl sulfoxide (DMSO) to prepare a 20 mM stock. • 3.2. 3 μL of 20 mM stock of each compound was added to 27 μL of DMSO and mixed thoroughly, and then diluted at a dilution ratio of […] (20 μL compound+40 μL DMSO) until the 10-12 points ended. After the compounds were diluted, they were set aside for use. • 3.3. The cell culture plate was taken out from the incubator, washed once with PBS, and replaced with a fresh culture medium free of serum. A mixture of TNF-α (100 ng/mL), SMAC mimic (SmacM, 100 nM) and Z_VAD-FMK (10 μM) was added to induce the programmed necrosis in HT-29 cells. • 3.4. The compound dilution plate was prepared, 0.5 μL of the diluted compound was added to the corresponding 96-well plate, and mixed gently. Two duplicate wells were prepared for each compound. • 3.5. The treated 96-well plate to which the compounds had been added was placed back into the 37° C. incubator containing 5% CO2 and incubated overnight.
The luminescence cell viability detection kit was used to calculate the activity of the compound by measuring the ATP content in viable cells. • 4.1. The CellTiter-Glo® buffer and dry powdered substrate were equilibrated to room temperature before use. • 4.2. The CellTiter-Glo® substrate was resuspended with Cell Titer-Glo® buffer, then homogeneously mixed by gently vortexing. • 4.3. The cell culture plate was taken out and equilibrated at room temperature for 10 minutes (usually not suitable if more than 30 minutes). • 4.4. 20 μL of enzyme/substrate mixture was added into the 96-well assay plate with a multi-channel pipettor. • 4.5. The 96-well assay plate was placed on a shaker and the content was mixed for 2-3 minutes to promote the cell lysis. • 4.6. […]

As usually defined, the EC50 is the concentration giving half of the maximal effect. `Nc1ncc(C#Cc2cncc(-n3cc4c(n3)[C@H](c3ccccc3)CC4)c2)cn1` [Compound 14]: the Kp at 1 h in series [1] was determined as 2.92. Besides, the EC50 in series [2] was at most 100 nM.

As for `Nc1ncc(CCc2cncc(-n3cc4c(n3)[C@H](c3ccccc3)CC4)c2)cn1` [Compound 61, (S)-5-(2-(5-(6-phenyl-5,6-dihydrocyclopenta[c]pyrazol-2 (4H)-yl)pyridin-3-yl)ethyl)pyrimidin-2-amine], in series [1], the Kp at 1 h came to 1.17. The EC50 in series [2] was at most 100 nM.

Consider `Nc1ncc(C#Cc2cncc(-n3nc4c(c3Cl)CCC4c3ccccc3)c2)cn1` (stereo not shown) [Compound 39], for which the Kp at 1 h in series [1] was found to be 2.07. In addition, the concentration for a half-maximal effect (EC50) in series [2] is at most 100 nM.

As for `Nc1ncc(C#Cc2ccnc(-n3cc4c(n3)C(c3ccccc3)CC4)c2)cn1` (stereo not shown) [Compound 28], the Kp at 1 h in series [1] came to 1.91. For the same molecule, the concentration for a half-maximal effect (EC50) in series [2] was at most 100 nM.

As to `Cc1c2c(nn1-c1cncc(C#Cc3cnc(N)nc3)c1)C(c1ccccc1)CC2` (stereo not shown) [Compound 40], the Kp at 1 h in series [1] is 1.61. The EC50 in series [2] was at most 100 nM.

As to `Nc1ncc(C#Cc2cccc(-n3cc4c(n3)C(c3ccccc3)CC4)c2)cn1` (stereo not shown) [Compound 36, 5-((3-(6-phenyl-5,6-dihydrocyclopenta[c]pyrazol-2 (4H)-yl)phenyl)ethynyl)pyrimidin-2-amine], the Kp at 1 h in series [1] came out at 3.62. Besides, the half-maximal effective concentration (EC50) in series [2] was at most 100 nM.

As to `Cc1ncc(C#Cc2cnc(N)nc2)cc1-n1cc2c(n1)C(c1ccccc1)CC2` (stereo not shown) [Compound 42, 5-((6-methyl-5-(6-phenyl-5,6-dihydrocyclopenta[c]pyrazol-2 (4H)-yl)pyridin-3-yl)ethynyl)pyrimidin-2-amine], the Kp at 1 h in series [1] was found to be 2.45. Moreover, the concentration for a half-maximal effect (EC50) in series [2] was at most 100 nM.

`Nc1ncc(C#Cc2cncc(-n3nc4c(n3)C(c3cc(F)cc(F)c3)CC4)c2)cn1` (stereo not shown) [Compound 63, 5-((5-(4-(3,5-difluorophenyl)-5,6-dihydrocyclopenta[d][1,2,3]triazol-2 (4H)-yl)pyridin-3-yl)ethynyl)pyrimidin-2-amine]: the Kp at 1 h in series [1] turned out to be 3.77. The EC50 in series [2] is at most 100 nM.

On to `C(#Cc1cccc(-n2cc3c(n2)C(c2ccccc2)CC3)c1)c1cccnc1` (stereo not shown) [Compound 32, 6-phenyl-2-(3-(pyridin-3-ethynyl)phenyl)-2,4,5,6-tetrahydrocyclopenta[c]pyrazole], for which the Kp at 1 h in series [1] turned out to be 1.27. Moreover, the half-maximal effective concentration (EC50) in series [2] is at most 100 nM.

Take `Nc1ncc(C#Cc2cncc(-n3cc4c(n3)C(c3cccc(F)c3)CC4)c2)cn1` (stereo not shown) [Compound 45]: in series [1], the Kp at 1 h was 2.28. The EC50 in series [2] is at most 100 nM.

On to `C(#Cc1cnc2cccnn12)c1cc(-n2cc3c(n2)C(c2ccccc2)CC3)ccn1` (stereo not shown) [Compound 37], for which the Kp at 1 h in series [1] was determined as 1.06. In addition, the EC50 in series [2] was at most 100 nM.

Consider `Nc1ncc(C#CC2CCC(n3cc4c(n3)C(c3ccccc3)CC4)C2)cn1` (stereo not shown) [Compound 3, 5-((3-(6-phenyl-5,6-dihydrocyclopenta[c]pyrazol-2 (4H)-yl)cyclopentyl)ethynyl)pyrimidin-2-amine], for which the Kp at 1 h in series [1] was found to be 3.96. Also, the EC50 in series [2] was at most 100 nM.

`NC(=O)c1ncc(C#Cc2cncc(-n3cc4c(n3)C(c3ccccc3)CC4)c2)cn1` (stereo not shown) [Compound 10, 5-((5-(6-phenyl-5,6-dihydrocyclopenta[c]pyrazol-2 (4H)-yl)pyridin-3-yl)ethynyl)pyrimidine-2-carboxamide]: the Kp at 1 h in series [1] worked out at 1.34. For the same molecule, the concentration giving a half-maximal response (EC50) in series [2] is above 1000 nM.

Turning to `Nc1ncc(C#Cc2cncc(-n3nc4c(n3)[C@H](c3ccccc3)CC4)c2)cn1` [Compound 55, (S)-5-((5-(4-phenyl-5,6-dihydrocyclopenta[d][1,2,3]triazol-2 (4H)-yl)pyridin-3-yl)ethynyl)pyrimidin-2-amine], the Kp at 1 h in series [1] was 2.61. In addition, in series [2], the EC50 is at most 100 nM.

As for `Cn1c(-n2cc3c(n2)C(c2ccccc2)CC3)cc(C#Cc2cnc(N)nc2)cc1=O` (stereo not shown) [Compound 4, 4-((2-aminopyrimidin-5-yl)ethynyl)-1-methyl-6-(6-phenyl-5,6-dihydrocyclopenta[c]pyrazol-2 (4H)-yl)pyridine-2 (1H)-one], the Kp at 1 h in series [1] was 1.44. Also, the half-maximal effective concentration (EC50) in series [2] is at most 100 nM.

Regarding `Cn1cc(C#Cc2cnc(N)nc2)cc(-n2cc3c(n2)C(c2ccccc2)CC3)c1=O` (stereo not shown) [Compound 44], the Kp at 1 h in series [1] worked out at 3.25. The concentration giving a half-maximal response (EC50) in series [2] is at most 100 nM.

Consider `C(#Cc1cnc2cccnn12)c1cccc(-n2cc3c(n2)C(c2ccccc2)CC3)c1` (stereo not shown) [Compound 5], for which, in series [1], the Kp at 1 h stood at 0.75. Besides, the concentration giving a half-maximal response (EC50) in series [2] was at most 100 nM.

Take `Nc1ncc(C#Cc2cc(-n3cc4c(n3)C(c3ccccc3)CC4)ncn2)cn1` (stereo not shown) [Compound 9, 5-((6-(6-phenyl-5,6-dihydrocyclopenta[c]pyrazol-2 (4H)-yl)pyrimidine-4-yl)ethynyl)pyrimidin-2-amine]: the Kp at 1 h in series [1] was 2.85. In addition, the EC50 in series [2] was in the range of 100 to 1000 nM.

Turning to `Nc1ncc(C#Cc2cncc(-n3cc4c(n3)[C@H](c3ccccc3)CC4)c2)s1` [Compound 31], the Kp at 1 h in series [1] amounted to 2.38. In series [2], the EC50 is at most 100 nM.

Consider `C(#Cc1cnc2cccnn12)c1cccc(-n2cc3c(n2)C(c2ccccc2)CC3)n1` (stereo not shown) [Compound 1, 3-((6-(6-phenyl-5,6-dihydrocyclopenta[c]pyrazol-2 (4H)-yl)pyridin-2-yl)ethynyl)imidazo[1,2-b]pyridazine], for which the Kp at 1 h in series [1] is 0.735. Moreover, the concentration giving a half-maximal response (EC50) in series [2] is at most 100 nM.

For the molecule `Nc1ncc(C#Cc2cncc(-n3cc4c(n3)C(c3ccccc3)OC4)c2)cn1` (stereo not shown) [Compound 51, 5-(5-(6-phenyl-4H-furo[3,4-c]pyrazol-2 (6H)-yl)pyridin-3-ethynyl)pyrimidin-2-amine], the Kp at 1 h in series [1] was determined as 2.46. Further, the concentration giving a half-maximal response (EC50) in series [2] is at most 100 nM.

For the molecule `Nc1ncc(C#Cc2cncc(-n3cc4c(n3)C(c3ccccc3)CC4)c2)cn1` (stereo not shown) [Compound 38], the Kp at 1 h in series [1] came to 2.46. Also, in series [2], the 50% effective concentration (EC50) was at most 100 nM.

For `Oc1ccc(C#Cc2cncc(-n3cc4c(n3)C(c3ccccc3)CC4)c2)nn1` (stereo not shown) [Compound 11, 6-((5-(6-phenyl-5,6-dihydrocyclopenta[c]pyrazol-2 (4H)-yl)pyridin-3-yl)ethynyl)pyridazine-3-ol], the Kp at 1 h in series [1] is 1.23. In addition, the EC50 in series [2] was at most 100 nM.
